For orientation: MIC means the lowest concentration that inhibits growth of the organism.

Here are results for 17 molecules from patent US20200095236A1, “ANTIBACTERIAL COMPOUNDS” (FORGE THERAPEUTICS, INC., priority 2017, published 2020).

Converted amounts (≈) assume the structure as drawn. Where two headings read alike, the source gives them in different places.

Type in all cases: cell-based
For one assay, the system named is S. aureus. Description: Bacterial susceptibility testing, MIC by broth microdilution (CLSI). To be noted: Staphylococcus aureus, read-out: S. aureus MIC. How it is done: (§1) Minimal inhibitory concentrations (MIC) were determined by the broth microdilution method in accordance with the Clinical and Laboratory Standards Institute (CLSI) guidelines. In brief, organism suspensions were adjusted to a 0.5 McFarland standard to yield a final inoculum between 3×10^5 and 7×10^5 colony-forming units (CFU)/mL. Drug dilutions and inocula were made in sterile, cation adjusted Mueller-Hinton Broth (Beckton Dickinson). An inoculum volume of 100 μL was added to wells containing 100 μL of broth with 2-fold serial dilutions of drug. All inoculated microdilution trays were incubated in ambient air at 35° C. for 18-24 h. Following incubation, the lowest concentration of the drug that prevented visible growth (OD600 nm<0.05) was recorded as the MIC. Performance of the assay was monitored by the use of laboratory quality-control strains and levofloxacin, a compound with a defined MIC spectrum, in accordance with CLSI guidelines.
(In general: Dilution methods test growth across graded concentrations, often in twofold steps.)

Another assay relates to E. coli. The assay is described as above. To be noted: Escherichia coli, read-out: E. coli MIC. How it is done:
as §1

The next assay has as its system K. pneumoniae. The assay is described as above. As to conditions: Klebsiella pneumoniae, read-out: K. pneumoniae MIC. How it is done:
as §1

Assay [1] concerns TLR-4 activity of A. baumannii culture supernatants. In words: TLR4 assay: TLR4 activity of A. baumannii culture supernatants in HEK-Blue-hTLR4 cells. As to conditions: Acinetobacter baumannii, HEK-Blue hTLR4, read-out: % TLR-4 activity. The method, then: The TLR4 assay measures activity of diluted filter-sterilized A. baumannii culture supernatants. The assay was performed as described in Lin et al, Mbio, 2012. Briefly, A. baumannii was passaged to mid log-phase in the presence of Forge LpxC inhibitors. Culture supernatants were harvested, filter-sterilized and diluted 1:1000. TLR4 activity of the supernatants was tested using HEK-Blue-hTLR4 cells (Invivogen) that carry NF-kB and AP-1 driven SEAP (secreted embryonic alkaline phosphatase) reporter gene.
Exemplary TLR4 assay data (% TLR-4 activity) for compounds in embodiments of the disclosure.

Setting [2] is: broth microdilution, 35° C., 18-24 h.

With `O=C(Nc1cnoc1)C(Cc1ccc(C#Cc2ccc(CN3CCOCC3)cc2)cc1)c1nc[nH]c(=O)c1O` (centres unmarked) [Compound 4, 2-(5-hydroxy-6-oxo-1,6-dihydropyrimidin-4-yl)-N-(isoxazol-4-yl)-3-(4-((4-(morpholinomethyl)phenyl)ethynyl)phenyl) propanamide], the figures for the MIC with S. aureus (setting [2]), in the assay with E. coli (setting [2]) and in the assay with K. pneumoniae (setting [2]) were over 32 µg/mL, 1 to 8 µg/mL (≈ 1.9 to 15.2 µM) and over 32 µg/mL, respectively.

With `CNC(=O)C(Cc1ccc(C#Cc2ccc(CN3CCOCC3)cc2)cc1)c1nc[nH]c(=O)c1O` (centres unmarked) [Compound 5, 2-(5-hydroxy-6-oxo-1,6-dihydropyrimidin-4-yl)-N-methyl-3-(4-((4-(morpholinomethyl)phenyl)ethynyl)phenyl) propanamide], the values for the MIC with S. aureus (setting [2]), with E. coli (setting [2]) and with K. pneumoniae (setting [2]) were over 32 µg/mL, 1 to 8 µg/mL (≈ 2.12 to 16.9 µM) and over 32 µg/mL, respectively.

`C=CCNC(=O)C(Cc1ccc(C#Cc2ccc(CN3CCOCC3)cc2)cc1)c1nc[nH]c(=O)c1O` (centres unmarked) [Compound 6, N-allyl-2-(5-hydroxy-6-oxo-1,6-dihydropyrimidin-4-yl)-3-(4-((4-(morpholinomethyl)phenyl)ethynyl)phenyl)propanamide]: the minimum inhibitory concentration (MIC) in the assay with S. aureus (setting [2]) is over 32 µg/mL; in the assay with E. coli (setting [2]), 8 to 32 µg/mL (≈ 16 to 64.2 µM); in the assay on K. pneumoniae (setting [2]), over 32 µg/mL.

With `O=C(NCCO)C(Cc1ccc(C#Cc2ccc(CN3CCOCC3)cc2)cc1)c1nc[nH]c(=O)c1O` (centres unmarked) [Compound 7, 2-(5-hydroxy-6-oxo-1,6-dihydropyrimidin-4-yl)-N-(2-hydroxyethyl)-3-(4-((4-(morpholinomethyl)phenyl)ethynyl)phenyl) propanamide], the MIC in the assay on S. aureus (setting [2]) is over 32 µg/mL; with E. coli (setting [2]), 8 to 32 µg/mL (≈ 15.9 to 63.7 µM); in the assay on K. pneumoniae (setting [2]), over 32 µg/mL.

With `O=C(Nc1ccn[nH]1)C(Cc1ccc(C#Cc2ccc(CN3CCOCC3)cc2)cc1)c1nc[nH]c(=O)c1O` (centres unmarked) [Compound 8, 2-(5-hydroxy-6-oxo-1,6-dihydropyrimidin-4-yl)-3-(4-((4-(morpholinomethyl)phenyl)ethynyl)phenyl)-N-(1H-pyrazol-5-yl)propanamide], the minimum inhibitory concentration (MIC) in the assay on S. aureus (setting [2]), in the assay on E. coli (setting [2]) and in the assay with K. pneumoniae (setting [2]) was over 32 µg/mL each time.

Turning to `O=C(Nc1cnc[nH]1)C(Cc1ccc(C#Cc2ccc(CN3CCOCC3)cc2)cc1)c1nc[nH]c(=O)c1O` (centres unmarked) [Compound 9, 2-(5-hydroxy-6-oxo-1,6-dihydropyrimidin-4-yl)-N-(1H-imidazol-5-yl)-3-(4-((4-(morpholinomethyl)phenyl)ethynyl)phenyl) propanamide], the MIC in the assay with S. aureus (setting [2]), in the assay with E. coli (setting [2]) and with K. pneumoniae (setting [2]) was over 32 µg/mL each time.

In the case of `NCCNC(=O)C(Cc1ccc(C#Cc2ccc(CN3CCOCC3)cc2)cc1)c1nc[nH]c(=O)c1O` (centres unmarked) [Compound 10, N-(2-aminoethyl)-2-(5-hydroxy-6-oxo-1,6-dihydropyrimidin-4-yl)-3-(4-((4-(morpholinomethyl)phenyl)ethynyl)phenyl) propanamide], the MIC in the assay with S. aureus (setting [2]) is over 32 µg/mL; in the assay on E. coli (setting [2]) it was 1 to 8 µg/mL (≈ 1.99 to 15.9 µM); with K. pneumoniae (setting [2]), 8 to 32 µg/mL (≈ 15.9 to 63.8 µM).

Take `O=C(Nc1nnn[nH]1)C(Cc1ccc(C#Cc2ccc(CN3CCOCC3)cc2)cc1)c1nc[nH]c(=O)c1O` (centres unmarked) [Compound 11, 2-(5-hydroxy-6-oxo-1,6-dihydropyrimidin-4-yl)-3-(4-((4-(morpholinomethyl)phenyl)ethynyl)phenyl)-N-(1H-tetrazol-5-yl)propanamide]: the MIC with S. aureus (setting [2]), in the assay with E. coli (setting [2]) and with K. pneumoniae (setting [2]) was over 32 µg/mL in each case.

Regarding `O=C(CF)NCC(Cc1ccc(C#Cc2ccc(CN3CC4CCC(C3)O4)cc2)cc1)c1nc[nH]c(=O)c1O` (centres unmarked) [Compound 13, N-(3-(4-((4-((8-oxa-3-azabicyclo[3.2.1]octan-3-yl)methyl)phenyl)ethynyl)phenyl)-2-(5-hydroxy-6-oxo-1,6-dihydropyrimidin-4-yl)propyl)-2-fluoroacetamide], the MIC is over 32 µg/mL with S. aureus, 1 to 8 µg/mL (≈ 1.88 to 15.1 µM) with E. coli and 1 to 8 µg/mL (≈ 1.88 to 15.1 µM) in the assay on K. pneumoniae.

Regarding `O=C(CF)NCC(Cc1ccc(C#Cc2ccc(CCN3CCOCC3)cc2)cc1)c1nc[nH]c(=O)c1O` (centres unmarked) [Compound 16, 2-fluoro-N-(2-(5-hydroxy-6-oxo-1,6-dihydropyrimidin-4-yl)-3-(4-((4-(2-morpholinoethyl)phenyl)ethynyl)phenyl)propyl)acetamide], the minimum inhibitory concentration (MIC) in the assay on S. aureus is over 32 µg/mL; with E. coli, 1 to 8 µg/mL (≈ 1.93 to 15.4 µM); in the assay on K. pneumoniae it was 8 to 32 µg/mL (≈ 15.4 to 61.7 µM).

For `O=c1[nH]cnc(C(CNCCF)Cc2ccc(C#Cc3ccc(CN4CCOCC4)cc3)cc2)c1O` (centres unmarked) [Compound 58, 6-(1-((2-fluoroethyl)amino)-3-(4-((4-(morpholinomethyl)phenyl)ethynyl)phenyl)propan-2-yl)-5-hydroxypyrimidin-4(3H)-one], in assay [1], the activity at 4 µg/mL is under 20%, the activity at 8 µg/mL is under 20% and the activity at 16 µg/mL was under 20%.

With `CCCNCC(Cc1ccc(C#Cc2ccc(CN3CCOCC3)cc2)cc1)c1nc[nH]c(=O)c1O` (centres unmarked) [Compound 60, 5-hydroxy-6-(1-(4-((4-(morpholinomethyl)phenyl)ethynyl)phenyl)-3-(propylamino)propan-2-yl)pyrimidin-4(3H)-one], in assay [1], the activity at 4 µg/mL was over 80%, the activity at 8 µg/mL was over 80% and the activity at 16 µg/mL is over 80%.

On to `N#CC1CCN(Cc2ccc(C#Cc3ccc(CC(C(=O)NCC(F)F)c4nc[nH]c(=O)c4O)cc3)cc2)C1` (centres unmarked) [Compound 102, 3-(4-((4-((3-cyanopyrrolidin-1-yl)methyl)phenyl)ethynyl)phenyl)-N-(2,2-difluoroethyl)-2-(5-hydroxy-6-oxo-1,6-dihydropyrimidin-4-yl)propanamide], for which, in assay [1], the activity at 4 µg/mL lay within 20 to 50%, the activity at 8 µg/mL was under 20% and the activity at 16 µg/mL was under 20%.

Regarding `O=c1[nH]cnc(C2(Cc3ccc(C#Cc4ccc(CN5CCOCC5)cc4)cc3)CC2)c1O` [Compound 246, 5-hydroxy-6-(1-(4-((4-(morpholinomethyl)phenyl)ethynyl)benzyl)cyclopropyl)pyrimidin-4(3H)-one], the MIC in the assay with E. coli (setting [2]) and with K. pneumoniae (setting [2]) was over 32 µg/mL each time.

Consider `O=c1[nH]cnc(C2(Cc3ccc(C#Cc4ccc(CN[C@@H]5CCOC5)cc4)cc3)CC2)c1O` [Compound 247, (R)-5-hydroxy-6-(1-(4-((4-(((tetrahydrofuran-3-yl)amino)methyl)phenyl)ethynyl)benzyl)cyclopropyl)pyrimidin-4(3H)-one], for which the MIC in the assay on E. coli (setting [2]) fell in the range of 1 to 8 µg/mL (≈ 2.26 to 18.1 µM); in the assay with K. pneumoniae (setting [2]), 8 to 32 µg/mL (≈ 18.1 to 72.5 µM).

For `O=c1[nH]cnc(C(Cc2ccc(C#Cc3ccc(CN4CCOCC4)cc3)cc2)CN2CCOCC2)c1O` (centres unmarked) [Compound 249, 5-hydroxy-6-(1-morpholino-3-(4-((4-(morpholinomethyl)phenyl)ethynyl)phenyl)propan-2-yl)pyrimidin-4(3H)-one], the MIC with E. coli (setting [2]) was under 1 µg/mL; with K. pneumoniae (setting [2]), over 32 µg/mL.

As for `O=c1[nH]cnc(C(CNCCc2cccnc2)Cc2ccc(C#Cc3ccc(CN4CCOCC4)cc3)cc2)c1O` (centres unmarked) [Compound 251, 5-hydroxy-6-(1-(4-((4-(morpholinomethyl)phenyl)ethynyl)phenyl)-3-((2-(pyridin-3-yl)ethyl)amino)propan-2-yl)pyrimidin-4(3H)-one], the MIC with E. coli (setting [2]) and in the assay on K. pneumoniae (setting [2]) was over 32 µg/mL in each case.
